Source: PubChem BioAssay (NCI)
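Interpolation was linear, between the two tested concentrations surrounding the appropriate level; five concentrations were tested over 48 hours in 96-well plates. The concentration for 50% growth inhibition is given as GI50. TGI denotes the concentration required for complete inhibition of growth.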

Tests used:
Assay in all cases: inhibition of tumour cell growth, NCI panel, 48 h
A549 NSCLC = system: A549 NSCLC
HL-60(TB) leukemia = system: HL-60(TB) leukemia
HOP-92 NSCLC = system: HOP-92 NSCLC
HS 578T breast = system: HS 578T breast
LOX IMVI melanoma = system: LOX IMVI melanoma
OVCAR-3 ovarian = system: OVCAR-3 ovarian
RPMI-8226 leukemia = system: RPMI-8226 leukemia
SF-295 CNS = system: SF-295 CNS
SW-620 colon = system: SW-620 colon
T-47D breast = system: T-47D breast

Row | Structure (SMILES) | GI50 (A549 NSCLC) [µM] | TGI (A549 NSCLC) [µM] | GI50 (HL-60(TB) leukemia) [µM] | TGI (HL-60(TB) leukemia) [µM] | GI50 (HOP-92 NSCLC) [µM] | TGI (HOP-92 NSCLC) [µM] | GI50 (HS 578T breast) [µM] | TGI (HS 578T breast) [µM] | GI50 (LOX IMVI melanoma) [µM] | TGI (LOX IMVI melanoma) [µM] | GI50 (OVCAR-3 ovarian) [µM] | TGI (OVCAR-3 ovarian) [µM] | GI50 (RPMI-8226 leukemia) [µM] | TGI (RPMI-8226 leukemia) [µM] | GI50 (SF-295 CNS) [µM] | TGI (SF-295 CNS) [µM] | GI50 (SW-620 colon) [µM] | TGI (SW-620 colon) [µM] | GI50 (T-47D breast) [µM] | TGI (T-47D breast) [µM]
1 | CCC(c1ccc(OC)cc1)C(CC)c1ccc(O)c(CN2CCN(C)CC2)c1 (stereo not given) | 8.26 | 22.8 | 2.62 | 5.9 | 2 | 9.64 | 3.08 | 9.56 | 2.48 | 7.64 | 4.1 | 14.3 | 2.92 | 9.5 | 2.06 | 3.95 | 3.15 | 10 | 2.57 | 8.35
2 | O=C(CN1CCN(c2cc3c(cc2F)c(=O)c(C(=O)O)cn3C2CC2)CC1)Nc1nc(-c2ccc(Cl)cc2)cs1 | 3.75 | > 100 | 2.71 | 6.29 | 2.73 | 7.91 | 7.19 | 73.7 | 3.39 | 19 | 3.51 | 17.3 | 3.21 | > 100 | 2.77 | 29.6 | 3.48 | 16.7 | 3.58 | > 100
3 | COc1cccc2c1-c1c(c3ccc([N+](=O)[O-])cc3c(=O)n1CCCN)C2=O | 11 | 34.4 | 1.62 | 3.93 | 5.64 | 13.3 | 7.62 | 18.7 | 1.2 | 2.64 | 2.3 | 5.71 | 1.65 | 5.84 | 3.1 | 14.8 | 0.459 | 3.2 | 1.52 | 3.63
4 | Cc1cn(C2C=CC(CO)O2)c(=O)[nH]c1=O (stereo not given) | – | > 1000 | – | > 1000 | – | > 1000 | – | > 1000 | – | > 1000 | – | > 1000 | – | > 1000 | – | > 1000 | – | > 1000 | – | > 1000
5 | Brc1ccc2[nH]cc(-c3nc(-c4c[nH]c5ncccc45)cs3)c2c1 | 3.2 | 16.3 | 4.29 | > 100 | 1.98 | 6.89 | 10.7 | > 100 | 2.46 | 11 | 5.48 | 18.6 | 4.82 | 63.9 | 2.74 | 7.31 | 3.79 | 14.1 | 4.97 | 20.3
6 | Cc1cc2cc3ccc(N(C)C)cc3nc2cc1N | 0.431 | 2.61 | 0.805 | 5.09 | 1.14 | 4.69 | 0.51 | 3.48 | 0.325 | 5.01 | 0.502 | 2.45 | 0.637 | 5.55 | 0.273 | 2.03 | 0.334 | 1.92 | 0.434 | 3.5
7 | ON(Cc1ccccc1)C(=S)c1ccccc1 | – | > 100 | – | 7.75 | – | > 100 | – | > 100 | – | > 46.9 | – | > 67 | – | > 100 | – | > 45.3 | – | > 100 | – | > 100
8 | COc1cc2c(cc1OC)C(Sc1ccc(SC)cc1)c1c(nc(N)c(C#N)c1N)O2 (stereo not given) | 2.05 | 3.68 | 1.51 | 3.59 | 1.96 | 3.86 | 2.01 | 4.52 | 1.28 | 2.55 | 1.62 | 3.06 | 2.54 | 6.46 | 1.63 | 3.01 | 1.92 | 3.97 | 1.62 | 4.26
9 | COc1cccc(-c2nn(-c3ccccc3)cc2-c2ccnc(NCCNC(=O)Nc3cccc(C(F)(F)F)c3)c2)c1 | 3.38 | 11.5 | 1.54 | 4.23 | 1.46 | 3.28 | 1.99 | 5.2 | 1.64 | 2.99 | 1.99 | 4.32 | 2.23 | 5.54 | 1.66 | 3.28 | 1.91 | 3.81 | 2.23 | 6.01
10 | COc1cccc(-c2ccc3c(c2)C2CCN(Cc4ccccc4)C3C2)c1 (stereo not given) | 7.72 | 31.8 | 5.71 | 21 | 3.72 | 20.2 | 8.64 | 31 | 10.2 | 26.8 | 4.49 | 17 | 4.93 | 23.6 | 4.08 | 20.9 | 4.59 | 20.3 | 5.19 | 38.5
11 | CN(Cc1cccc(F)c1)c1ccc(CO)c(Cl)c1 | 4.91 | 37 | 22 | > 77.2 | 3.37 | 28.1 | 25 | > 100 | 23.5 | 75.9 | 3.08 | 15 | 13.3 | > 68.3 | 3.6 | > 100 | 5.13 | > 100 | 0.548 | 3.92
